Patent publication US20240300943A1, “NOVEL SALTS OF HETEROCYCLIC COMPOUND AS PROTEIN KINASE INHIBITOR AND USES THEREOF” (HK INNO.N CORPORATION, priority 2021, published 2024)

Tests used:
Type in all cases: physicochemical
[1] = Measurement of water solubility; conditions: saturated solution shaken at room temperature for 24 hours
Procedure: A liquid phase was taken out of the solution and filtered using a 0.22 μm PVDF filter. The filtered liquid phase was diluted 10-fold for LC analysis.
LC analysis was performed by the following method.

[2] = Physical stability evaluation under stress conditions
Procedure: In order to evaluate physical stability, samples were packaged in the form of ((LPDE+N2)+silica gel 1 g+LDPE)+Al-Bag, and stored under stress conditions (60° C.±2° C./80% RH±5%) for 2/4 weeks before evaluation.
In table 2, initial is a result measured after preparation of salts, and S2W and S4W are results measured after two and four weeks while being exposed to stress conditions, respectively.

[3] = Hygroscopicity evaluation; conditions: for Individual related material: in %
Excerpt: Samples were placed in a glass desiccator in which relative humidity was adjusted to 33%, 53%, 75%, and 93%, and then stored for two and four weeks to be evaluated.

[4] = Photostability evaluation
Excerpt: Samples were packaged in LPDE bag, and stored under visible (1.2M Lux-h), UV (200 W-h/m2) and UV+visible conditions, respectively, and then evaluated.

## C[C@@H]1CN(C(=O)CC#N)CC=C1c1cc(NC(=O)C2CC2)nc2[nH]ccc12 [Example 1, (S)—N-(4-(1-(2-cyanoacetyl)-3-methyl-1,2,3,6-tetrahydropyridin-4-yl)-1H-pyrrolo[2,3-b]pyridin-6-yl)cyclopropanecarboxamide]
[1]
  Water solubility: 5900 µg/mL
[2]; Initial
  C.I quantitative: 9.2%
  Content (anhydride, as anhydride): 97.9%
  Moisture: 3.33%
  Purity: Individual related material: 0.13%
  Purity: Total related material: 0.66%
[2]; S2W: 2 weeks at 60° C./80% RH
  C.I quantitative: 9.1%
  Content (anhydride, as anhydride): 98.0%
  Purity: Individual related material: 0.13%
  Purity: Total related material: 1.08%
[2]; S4W: 4 weeks at 60° C./80% RH
  C.I quantitative: 9.1%
  Content (anhydride, as anhydride): 98.6%
  Purity: Individual related material: 0.34%
  Purity: Total related material: 1.28%
[3]; Initial
  Total related material: 0.66%
  Water: 3.33%
  Individual related material: 0.13
[3]; relative humidity 33%, 2 W
  Total related material: 0.68%
  Water: 5.22%
  Individual related material: 0.12
[3]; relative humidity 33%, 4 W
  Total related material: 0.62%
  Water: 5.32%
  Individual related material: 0.11
[3]; relative humidity 53%, 2 W
  Total related material: 0.78%
  Water: 5.21%
  Individual related material: 0.12
[3]; relative humidity 53%, 4 W
  Total related material: 0.78%
  Water: 5.38%
  Individual related material: 0.12
[3]; relative humidity 75%, 2 W
  Total related material: 0.69%
  Water: 5.24%
  Individual related material: 0.12
[3]; relative humidity 75%, 4 W
  Total related material: 0.68%
  Water: 5.41%
  Individual related material: 0.11
[3]; relative humidity 93%, 2 W
  Total related material: 0.89%
  Water: 5.37%
  Individual related material: 0.12
[3]; relative humidity 93%, 4 W
  Total related material: 0.94%
  Water: 5.43%
  Individual related material: 0.13
[4]; Initial
  Individual related material: 0.13%
  Total related material: 0.66%
[4]; Solid, Control
  Individual related material: 0.11%
  Total related material: 0.55%
[4]; Solid, UV (200 W-h/m2)
  Individual related material: 0.36%
  Total related material: 2.31%
[4]; Solid, UV + Vis
  Individual related material: 0.81%
  Total related material: 4.74%
[4]; Solid, UV + Vis Control
  Individual related material: 0.12%
  Total related material: 0.65%
[4]; Solid, Vis (1.2M Lux-h)
  Individual related material: 0.66%
  Total related material: 3.83%

## C[C@@H]1CN(C(=O)CC#N)CC=C1c1cc(NC(=O)C2CC2)nc2[nH]ccc12 [Example 2, (S)—N-(4-(1-(2-cyanoacetyl)-3-methyl-1,2,3,6-tetrahydropyridin-4-yl)-1H-pyrrolo[2,3-b]pyridin-6-yl)cyclopropanecarboxamide]
[1]
  Water solubility: 5900 µg/mL
[2]; Initial
  C.I quantitative: 18.1%
  Content (anhydride, as anhydride): 100.7%
  Moisture: 3.93%
  Purity: Individual related material: 0.12%
  Purity: Total related material: 0.56%
[2]; S2W: 2 weeks at 60° C./80% RH
  C.I quantitative: 17.8%
  Content (anhydride, as anhydride): 101.4%
  Moisture: 3.93%
  Purity: Individual related material: 0.11%
  Purity: Total related material: 0.63%
[2]; S4W: 4 weeks at 60° C./80% RH
  C.I quantitative: 17.8%
  Content (anhydride, as anhydride): 99.2%
  Moisture: 3.79%
  Purity: Individual related material: 0.14%
  Purity: Total related material: 0.58%
[3]; Initial
  Total related material: 0.56%
  Water: 3.93%
  Individual related material: 0.12
[3]; relative humidity 33%, 2 W
  Total related material: 0.53%
  Water: 3.70%
  Individual related material: 0.11
[3]; relative humidity 33%, 4 W
  Total related material: 0.55%
  Water: 3.94%
  Individual related material: 0.10
[3]; relative humidity 53%, 2 W
  Total related material: 0.66%
  Water: 3.62%
  Individual related material: 0.12
[3]; relative humidity 53%, 4 W
  Total related material: 0.59%
  Water: 3.96%
  Individual related material: 0.11
[3]; relative humidity 75%, 2 W
  Total related material: 0.58%
  Water: 3.78%
  Individual related material: 0.11
[3]; relative humidity 75%, 4 W
  Total related material: 0.61%
  Water: 3.93%
  Individual related material: 0.11
[3]; relative humidity 93%, 2 W
  Total related material: 0.54%
  Water: 3.71%
  Individual related material: 0.11
[3]; relative humidity 93%, 4 W
  Total related material: 0.62%
  Water: 3.94%
  Individual related material: 0.10
[4]; Initial
  Individual related material: 0.12%
  Total related material: 0.56%
[4]; Solid, Control
  Individual related material: 0.11%
  Total related material: 0.44%
[4]; Solid, UV (200 W-h/m2)
  Individual related material: 0.11%
  Total related material: 0.6%
[4]; Solid, UV + Vis
  Individual related material: 0.12%
  Total related material: 0.91%
[4]; Solid, UV + Vis Control
  Individual related material: 0.12%
  Total related material: 0.48%
[4]; Solid, Vis (1.2M Lux-h)
  Individual related material: 0.11%
  Total related material: 0.69%

## C[C@@H]1CN(C(=O)CC#N)CC=C1c1cc(NC(=O)C2CC2)nc2[nH]ccc12 [Example 5, (S)—N-(4-(1-(2-cyanoacetyl)-3-methyl-1,2,3,6-tetrahydropyridin-4-yl)-1H-pyrrolo[2,3-b]pyridin-6-yl)cyclopropanecarboxamide]
[1]
  Water solubility: 4600 µg/mL
[4]; Initial
  Individual related material: 0.14%
  Total related material: 0.64%
[4]; Solid, Control
  Individual related material: 0.65%
  Total related material: 0.65%
[4]; Solid, UV (200 W-h/m2)
  Individual related material: 1%
  Total related material: 1%
[4]; Solid, UV + Vis
  Individual related material: 1.96%
  Total related material: 1.96%
[4]; Solid, UV + Vis Control
  Individual related material: 0.78%
  Total related material: 0.78%
[4]; Solid, Vis (1.2M Lux-h)
  Individual related material: 1.72%
  Total related material: 1.72%

## C[C@@H]1CN(C(=O)CC#N)CC=C1c1cc(NC(=O)C2CC2)nc2[nH]ccc12 [Example 6, (S)—N-(4-(1-(2-cyanoacetyl)-3-methyl-1,2,3,6-tetrahydropyridin-4-yl)-1H-pyrrolo[2,3-b]pyridin-6-yl)cyclopropanecarboxamide]
[1]
  Water solubility: 900 µg/mL
